{"source": "patent US11723886B2", "about": "“Targeting ocular diseases with novel APE1/Ref-1 inhibitors” (Indiana University Research and Technology Corporation, priority 2018, dated 2023)", "key": {"[1]": {"target": "Ref-1/APE1 endonuclease activity (Homo sapiens, UniProt P27695)", "sequence (P27695 whole entry)": "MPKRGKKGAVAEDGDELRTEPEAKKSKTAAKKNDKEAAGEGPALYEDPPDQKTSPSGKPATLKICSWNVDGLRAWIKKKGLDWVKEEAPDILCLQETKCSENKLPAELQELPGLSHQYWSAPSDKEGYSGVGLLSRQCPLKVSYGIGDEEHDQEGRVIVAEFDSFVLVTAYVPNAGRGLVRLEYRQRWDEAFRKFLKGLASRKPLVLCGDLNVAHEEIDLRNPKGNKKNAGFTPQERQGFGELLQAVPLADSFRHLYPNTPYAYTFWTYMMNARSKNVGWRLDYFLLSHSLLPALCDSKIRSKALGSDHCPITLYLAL", "conditions": "cited from earlier work"}, "[2]": {"test_system": "total vessel density and VEGF expression", "conditions": "stroke in type one diabetes mellitus rats; cited from earlier work"}, "[3]": {"test_system": "retinal and choroidal endothelial cells", "conditions": "cited from earlier work"}, "[4]": {"test_system": "laser-induced choroidal neovascularization", "conditions": "delivered intravitreally; cited from earlier work"}, "[5]": {"test_system": "laser-induced choroidal neovascularization"}, "[6]": {"test_system": "NF-κB and HIF-1α activity", "conditions": "retinal pigment epithelial cells; concomitant reduction in VEGF expression; cited from earlier work"}, "[7]": {"test_system": "retinal neovascularization", "conditions": "delivered intravitreally; cited from earlier work"}, "[8]": {"test_system": "APE1 repair activity in neurons", "conditions": "cited from earlier work"}}, "note": "Entries after “also recorded” stand apart in the source; their conditions may differ."}
{"smiles": "CCCCCCCCC/C(=C\\C1=C(C)C(=O)C(OC)=C(OC)C1=O)C(=O)O", "note": "[APX3330]", "values": [{"measurement": "effect on endonuclease / APE1 activity", "setting": "[1]", "result": "does not affect the protein's endonuclease activity; also recorded: do not inhibit APE1 activity"}, {"measurement": "total vessel density and VEGF expression", "setting": "[2]", "result": "significantly decreased total vessel density and VEGF expression"}, {"measurement": "in vitro angiogenesis (proliferation, migration, tube formation)", "setting": "[3]", "result": "block in vitro angiogenesis"}, {"measurement": "neovascularization, L-CNV", "setting": "[4]", "result": "reduced neovascularization"}, {"measurement": "intraocular or systemic toxicity in vivo", "setting": "[5]; i.p. dosing in L-CNV mice", "result": "not observed obvious intraocular or systemic toxicity"}, {"measurement": "L-CNV volume", "setting": "[5]; i.p., 50 mg/kg twice daily, 5 days on/two days off, two weeks", "result": "significantly reduced L-CNV volume"}, {"measurement": "NF-κB and HIF-1α activity", "setting": "[6]", "result": "reduced both NF-κB and HIF-1α activity"}, {"measurement": "neovascularization, VLDLR knockout mouse", "setting": "[7]", "result": "reduced neovascularization"}, {"measurement": "APE1 repair activity in neurons", "setting": "[8]", "result": "can enhance APE1 repair activity"}]}
